Data reported in PubChem BioAssay AID256 (DTP/NCI, 2004).
Where “and” joins values, the source holds several entries; their conditions need not be identical. Equal entries are not always repeated. Toxic doses and inconclusive results are not listed. The calls were made as follows: active = survival T/C of 150% or more; inactive = T/C below 125% in these data.

System: CD2F1 mice, L1210 leukemia ip, survival T/C
Assay: NCI In Vivo Anticancer Drug Screen. Data for tumor model L1210 Leukemia (intraperitoneal) in CD2F1 (CDF1) mice
Conditions: endpoint: mean survival time, higher = longer survival
In short: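 Vehicle-treated tumor-bearing mice served as controls (C) for compound-treated mice (T). Reported figure is T divided by C.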

[1] = dose: 50.0 mg/kg/injection, schedule: Q01DX009 (ip), vehicle: Klucel (hydroxypropylcellulose) (HPC)
[2] = dose: 100.0 mg/kg/injection, schedule: Q01DX009 (ip), vehicle: Klucel (hydroxypropylcellulose) (HPC)
[3] = dose: 100.0 mg/kg/injection, schedule: Q04DX003 (ip), vehicle: saline with Tween-80
[4] = dose: 200.0 mg/kg/injection, schedule: Q01DX009 (ip), vehicle: Klucel (hydroxypropylcellulose) (HPC)
[5] = dose: 200.0 mg/kg/injection, schedule: Q04DX003 (ip), vehicle: saline with Tween-80
[6] = dose: 400.0 mg/kg/injection, schedule: Q04DX003 (ip), vehicle: saline with Tween-80
[7] = dose: 100.0 mg/kg/injection, schedule: Q01DX009 (ip), vehicle: saline with Tween-80
[8] = dose: 200.0 mg/kg/injection, schedule: Q01DX009 (ip), vehicle: saline with Tween-80
[9] = dose: 400.0 mg/kg/injection, schedule: Q01DX009 (ip), vehicle: saline with Tween-80
[10] = dose: 200.0 mg/kg/injection, schedule: Q04DX002 (ip), vehicle: saline with Tween-80
[11] = dose: 400.0 mg/kg/injection, schedule: Q04DX002 (ip), vehicle: saline with Tween-80

Measured: T/C

ClC(Cl)(Cl)C(c1ccccc1)c1ccccc1
inactive: [1] 96 % of control | [2] 93 % of control | [3] 101 % of control | [4] 93 % of control | [5] 95 % of control | [6] 90 % of control

CC(C(C(=O)O)S(=O)(=O)O)C(C(=O)O)S(=O)(=O)O (stereo unspecified)
inactive: dose: 12.5 mg/kg/injection, schedule: Q01DX001 (ip), vehicle: other 91 % of control | dose: 25.0 mg/kg/injection, schedule: Q01DX001 (ip), vehicle: other 95 % of control | dose: 50.0 mg/kg/injection, schedule: Q01DX001 (ip), vehicle: other 98 % of control

CC1(O)OOC(=O)C1(C)C (stereo unspecified)
inactive: dose: 5.0 mg/kg/injection, schedule: Q01DX001 (ip), vehicle: saline with Tween-80 91 % of control | dose: 10.0 mg/kg/injection, schedule: Q01DX001 (ip), vehicle: saline with Tween-80 91 % of control | dose: 20.0 mg/kg/injection, schedule: Q01DX001 (ip), vehicle: saline with Tween-80 92 % of control

O=S1(=O)C=Cc2ccccc2O1
inactive: dose: 75.0 mg/kg/injection, schedule: Q01DX009 (ip), vehicle: saline 102 % of control | dose: 75.0 mg/kg/injection, schedule: Q04DX003 (ip), vehicle: saline 97 % of control | dose: 150.0 mg/kg/injection, schedule: Q01DX009 (ip), vehicle: saline 102 % of control | dose: 150.0 mg/kg/injection, schedule: Q04DX003 (ip), vehicle: saline 95 % of control | dose: 300.0 mg/kg/injection, schedule: Q01DX009 (ip), vehicle: saline 100 % of control | dose: 300.0 mg/kg/injection, schedule: Q04DX003 (ip), vehicle: saline 97 % of control

S=c1[nH]ncn1/N=C/c1ccccc1Cl
inactive: [3] 95 % of control | [5] 101 % of control | [6] 89 % of control

O=C(O)CCCOc1ccc(Cl)cc1Cl
inactive: dose: 100.0 mg/kg/injection, schedule: Q04DX003 (ip), vehicle: saline 96 % of control | dose: 200.0 mg/kg/injection, schedule: Q04DX003 (ip), vehicle: saline 103 % of control | dose: 400.0 mg/kg/injection, schedule: Q04DX003 (ip), vehicle: saline 97 % of control

Fc1c(F)c(F)c([Si](c2c(F)c(F)c(F)c(F)c2F)(c2c(F)c(F)c(F)c(F)c2F)c2c(F)c(F)c(F)c(F)c2F)c(F)c1F
inactive: [7] 97 % of control | [8] 100 % of control | [9] 98 % of control

Cc1ccccc1-c1nc2c([nH]1)c(=O)n(C)c(=O)n2C
inactive: dose: 12.5 mg/kg/injection, schedule: Q01DX005 (ip), vehicle: distilled water + Tween-80 87 % of control | dose: 25.0 mg/kg/injection, schedule: Q01DX005 (ip), vehicle: distilled water + Tween-80 92 % of control and 94 % of control | dose: 50.0 mg/kg/injection, schedule: Q01DX005 (ip), vehicle: distilled water + Tween-80 93 % of control and 95 % of control | dose: 100.0 mg/kg/injection, schedule: Q01DX005 (ip), vehicle: distilled water + Tween-80 88 % of control | dose: 200.0 mg/kg/injection, schedule: Q01DX005 (ip), vehicle: distilled water + Tween-80 88 % of control and 93 % of control | dose: 400.0 mg/kg/injection, schedule: Q01DX005 (ip), vehicle: distilled water + Tween-80 90 % of control

O=C(O)/C=C/CC(=O)O
inactive: dose: 100.0 mg/kg/injection, schedule: Q01DX001 (ip), vehicle: saline 92 % of control | dose: 200.0 mg/kg/injection, schedule: Q01DX001 (ip), vehicle: saline 97 % of control | dose: 400.0 mg/kg/injection, schedule: Q01DX001 (ip), vehicle: saline 101 % of control

Cc1cccc(N(C)C(=S)Oc2ccc3ccccc3c2)c1
inactive: [1] 112 % of control | [2] 89 % of control | [4] 89 % of control

CC1(C)CC(=O)C2OC2(C)C1 (stereo unspecified)
inactive: [7] 100 % of control | [3] 95 % of control | [8] 97 % of control | [5] 103 % of control | [9] 96 % of control | [6] 97 % of control

O=[N+]([O-])c1ccc(-c2ccccc2)cc1
inactive: [3] 100 % of control | [5] 96 % of control | [6] 97 % of control

CS/C([S-])=N/N=C\c1ccccn1.CS/C([S-])=N/N=C\c1ccccn1.[Fe+2]
inactive: [3] 103 % of control | [5] 91 % of control | [6] 91 % of control

CC(C)NC(C)C
inactive: [10] 98 % of control | [11] 98 % of control

COc1ccc2c(ccc[n+]2C)c1
inactive: dose: 5.0 mg/kg/injection, schedule: Q01DX009 (ip), vehicle: saline 106 % of control | dose: 5.0 mg/kg/injection, schedule: Q04DX003 (ip), vehicle: saline 103 % of control | dose: 10.0 mg/kg/injection, schedule: Q01DX009 (ip), vehicle: saline 107 % of control | dose: 10.0 mg/kg/injection, schedule: Q04DX003 (ip), vehicle: saline 101 % of control | dose: 12.5 mg/kg/injection, schedule: Q01DX009 (ip), vehicle: alcohol 107 % of control | dose: 12.5 mg/kg/injection, schedule: Q04DX003 (ip), vehicle: acetone 104 % of control | dose: 20.0 mg/kg/injection, schedule: Q01DX009 (ip), vehicle: saline 106 % of control | dose: 20.0 mg/kg/injection, schedule: Q04DX003 (ip), vehicle: saline 109 % of control | dose: 25.0 mg/kg/injection, schedule: Q01DX009 (ip), vehicle: alcohol 116 % of control | dose: 25.0 mg/kg/injection, schedule: Q04DX003 (ip), vehicle: acetone 106 % of control | dose: 50.0 mg/kg/injection, schedule: Q04DX003 (ip), vehicle: acetone 106 % of control

CNS(=O)(=O)Cc1ccccc1
inactive: [3] 91 % of control | [5] 97 % of control | [6] 94 % of control

CN1Cc2c([nH]c3ccccc23)C(O)C1 (stereo unspecified)
inactive: dose: 75.0 mg/kg/injection, schedule: Q01DX001 (ip), vehicle: saline 98 % of control | dose: 150.0 mg/kg/injection, schedule: Q01DX001 (ip), vehicle: saline 106 % of control

O=S(=O)(O)SCc1ccccc1
inactive: [3] 97 % of control | [5] 92 % of control | [6] 98 % of control

O=[N+]([O-])c1ccccc1C[P+](c1ccccc1)(c1ccccc1)c1ccccc1
inactive: dose: 25.0 mg/kg/injection, schedule: Q04DX003 (ip), vehicle: saline with Tween-80 98 % of control | dose: 50.0 mg/kg/injection, schedule: Q04DX003 (ip), vehicle: saline with Tween-80 114 % of control

Cc1cc(C(=O)O)c(CC(=O)O)o1
inactive: dose: 100.0 mg/kg/injection, schedule: Q04DX002 (ip), vehicle: saline with Tween-80 104 % of control | [10] 104 % of control | [11] 86 % of control

S=c1nc(-c2ccncc2)[nH][nH]1
inactive: dose: 25.0 mg/kg/injection, schedule: Q01DX009 (ip), vehicle: saline sonified 107 % of control | dose: 50.0 mg/kg/injection, schedule: Q01DX009 (ip), vehicle: saline sonified 98 % of control | dose: 100.0 mg/kg/injection, schedule: Q01DX009 (ip), vehicle: saline sonified 107 % of control | [3] 100 % of control

CC1(C(=O)O)OC12CCCCC2 (stereo unspecified)
inactive: [7] 107 % of control | [8] 108 % of control | [9] 108 % of control

O=C(O)CCN1C(=O)c2ccccc2C1=O
inactive: [3] 98 % of control | [5] 97 % of control | [6] 97 % of control

COc1cc(C(=O)O)cc(OC)c1OC
inactive: dose: 100.0 mg/kg/injection, schedule: Q01DX001 (ip), vehicle: saline with Tween-80 97 % of control | dose: 200.0 mg/kg/injection, schedule: Q01DX001 (ip), vehicle: saline with Tween-80 97 % of control | dose: 400.0 mg/kg/injection, schedule: Q01DX001 (ip), vehicle: saline with Tween-80 97 % of control

C=CC[n+]1cccc2ccccc21
inactive: [3] 111 % of control
